Where two headings read alike, the source gives them in different places.
Experiments:
Solubility = format: physicochemical; conditions: qualitative
[1] = Acute toxicity, LD50 of each drug in male mice (DBA); format: in vivo; conditions: mouse, in vivo
From the text: (§1) In this invention, 10-monohalo-fusaric acid can be prepared by dissolving dehydrofusaric acid in water or other suitable organic solvent, if necessary, together with a suitable reagent for generating hydrogen halide. Hydrogen halide is then introduced or generated to effect the addition reaction. […] The halo-fusaric halide can be prepared by reacting halogenating agent such as thionylchloride, hydrochloride with halo-fusaric acid in a solvent. The solvent can be inert solvent or halogenating agent such as thionyl chloride. The ahlo-fusaric acid amides of the invention can be prepared from the halo-fusaric halide in a solvent by introducing ammonia gas or adding methylamine, dimethylamine, ethylamine, diethylamine, etc.. The halogenating agents used for preparing halo-fusaric halide can be thionylchloride, hydrochloride, phosphorus pentachloride and phosphorus oxychloride. The thionylchloride can be used without a solvent, however, it is usual to carry out the halogenation of halo-fusaric acid in a solvent such as chloroform, benzene, etc.. The halo-fusaric halide reacts with ammonia or a lower alkylamine in a solvent such as chloroform, benzene, etc.. The ahlo-fusaric acid amide can be prepared from halo-fusaric acid ester by reacting it with an alkylamine. The halo-fusaric acid ester can be prepared by reacting halo-fusaric acid with an alcohol in the presence of […]. The details of the preparation of the halo-fusaric acid can be understood from the description of the examples. The halo-fusaric acid amides of the invention are characterized by a significant anti-hypertensive effects and low toxicity. The followings are test results of anti-hypertensive effects and toxicities of the typical halo-fusaric acid amides of the invention. The anti-hypertensive effects of dibromo, monobromo, dichloro and monochloro fusaric acid amide, monomethylamide, dimethylamide were compared with those of dibromofusaric acid and fusaric acid. Blood pressure of spontaneously hypertensive rats (SHR) derived from the colony of SHR produced by selective inbreeding of a strain of Wistar rats (Okamoto and Aoki, Jap. Circul. J. 27:282-293, 1963) was measured indirectly in unanaesthesized rats plethysmographically (Williams et al, J. Clin. Invest. 18:373-376, 1939). Thirty percent depression of systolic blood pressure was defined to be significant and effective change. […] LD50 of each drug was obtained using male mice (DBA).

male mice (DBA) = assay: as above; format: in vivo; conditions: male mice (DBA), summary statement
From the text: as §1

[2] = test system: spontaneously hypertensive rats (SHR); assay: Antihypertensive action in spontaneously hypertensive rats, systolic blood pressure measured plethysmographically; format: in vivo, Wistar-derived); conditions: for ED50: Rattus norvegicus
From the text: as §1

dopamine-β-hydroxylase = conditions: prior art statement; cited from earlier work
[3] = prior art statement; cited from earlier work
[4] = ip, intraperitoneal, male mice (DBA), read-out: LD50 (mg/kg) Intraperitaneally
[5] = oral, male mice (DBA), read-out: LD50 (mg/kg) Orally
[6] = ip, read-out: ED50 (mg/kg) Intraperitoneally
[7] = po, read-out: ED50 (mg/kg) Orally
[8] = ip, antihypertensive action, intraperitoneal, SHR, 30% depression of systolic blood pressure defined as effective, read-out: ED50 (mg/kg) Intraperitoneally
[9] = antihypertensive action, oral, SHR, 30% depression of systolic blood pressure defined as effective, read-out: ED50 (mg/kg) Orally

| SMILES | Solubility: insoluble (Solubility) | Solubility: soluble (Solubility) | LD50 [1, 4] | LD50 [1, 5] | toxicity (in words) (male mice (DBA)) | ED50 [2, 6] | ED50 [2, 7] | anti-hypertensive effects (in words) ([2]; SHR, summary statement) | ED50 [2, 8] | ED50 [2, 9] | LD50 ([1]; ip) | LD50 ([1]; po) | inhibition of the production of dopamine-β-hydroxylase (dopamine-β-hydroxylase) | toxicity [3] |
| --- | --- | --- | --- | --- | --- | --- | --- | --- | --- | --- | --- | --- | --- | --- |
| CC(Br)CCc1ccc(C(=O)O)nc1 (stereo not shown) [10-bromo-fusaric acid, 5-(3-bromobutyl)picolinic acid] | insoluble in n-hexane, petroleum ether | soluble in alcohol, chloroform, acetone, benzene, ethylacetate, and is soluble in hot water but difficulty soluble in cold water |  |  |  |  |  |  |  |  |  |  |  |  |
| NC(=O)c1ccc(CCC(Br)CBr)cn1 (stereo not shown) [Compound 1, 5-(3,4-Dibromobutyl)picolinamide] | Insoluble in water, ether | Soluble in alcohol, acetone, benzene, chloroform | 1170 mg/kg | 1860 mg/kg | the least toxic | 1 mg/kg | 1.6 mg/kg | the most effective drug for hypertension |  |  |  |  |  |  |
| CC(Br)CCc1ccc(C(N)=O)nc1 (stereo not shown) [Compound 2, 5-(3-Bromobutyl)picolinamide] |  |  | 633 mg/kg | 1050 mg/kg |  |  |  |  | 2 mg/kg | 4 mg/kg |  |  |  |  |
| CN(C)C(=O)c1ccc(CCC(Br)CBr)cn1 (stereo not shown) [Compound 3, N.N-Dimethyl-5-(3,4-dibromobutyl)picolinamide] |  |  |  |  |  |  |  |  | 3 mg/kg | 4 mg/kg | 304 mg/kg | 500 mg/kg |  |  |
| NC(=O)c1ccc(CCC(Cl)CCl)cn1 (stereo not shown) [Compound 4, 5-(3,4-Dichlorobutyl)picolinamide] | Insoluble in water, ether | Soluble in methanol, acetone, benzene, chloroform | 374 mg/kg | 620 mg/kg |  |  |  |  | 2 mg/kg | 4 mg/kg |  |  |  |  |
| CN(C)C(=O)c1ccc(CCC(Cl)CCl)cn1 (stereo not shown) [Compound 5, N.N-Dimethyl-5-(3,4-dichlorobutyl)picolinamide] |  |  |  |  |  |  |  |  | 5 mg/kg | 1.6 mg/kg | 188 mg/kg | 300 mg/kg |  |  |
| O=C(O)c1ccc(CCC(Br)CBr)cn1 (stereo not shown) [Compound 6, 5-(3,4-dibromobutyl)picolinic acid, reference compound] | insoluble in cold water and petroleum ether | soluble in alcohol, chloroform, benzene, ethylacetate, and hot water | 132 mg/kg | 180 mg/kg |  |  |  |  | 3.2 mg/kg | 4 mg/kg |  |  |  |  |
| CCCCc1ccc(C(=O)O)nc1 [Compound 7, Fusaric acid] |  |  | 110 mg/kg | 130 mg/kg |  | 3.5 mg/kg | 4 mg/kg |  |  |  |  |  | inhibit the production of dopamine-β-hydroxylase | quite high in toxicity |

— US3935221A, “Substituted fusaric acid derivatives” (Banyu Pharmaceutical Co., Ltd., priority 1971, dated 1976)
